Data as given in patent US12569459B2, “Compositions and methods for treating pulmonary edema or lung inflammation” (priority 2020, dated 2026).

Key:
[1] = GLP toxicity phase: intratracheal instillation once daily for five days; format: in vivo, Sprague-Dawley rats; conditions: for Body weight: female rats, at terminal euthanasia vs pre-dose
Method: Safety studies are described in Example 3, below. In a safety study conducted in compliance with Good Laboratory Practices (GLPs), 0.3 mL (300 μl) was administered to rats weighing 250-350 grams via intratracheal instillation daily for five consecutive days. […] The calculated dose based on lung weight was about 1.57 μg/g wet lung weight.
This study was conducted using both male and female Sprague-Dawley rats (Envigo, Huntingdon, United Kingdom). Evaluation of the safety of the tracheal route of instillation for liothyronine sodium injection in human clinical trials can be accomplished in this species at appropriate dose levels. Furthermore, responses to thyroid hormone in rats are similar to responses in humans, and the choice of the rat model is based in large part on pharmacologic data from studies of thyroid hormone and associated receptors and physiological responses in rat lung. The University of Minnesota is accredited by the Association for the Assessment and Accreditation of Laboratory Animal Care, International (AAALAC) and registered with the United States Department of Agriculture to conduct research in laboratory animals. Animal studies conformed to NIH guidelines (Guide for the Care and Use of Laboratory Animals. NIH publication No. 86-23. Revised 1985). The protocol was reviewed and approved, as applicable, by the Institutional Animal Care and Use Committee (IACUC) at the University of Minnesota for compliance with regulations prior to study initiation or implementation of amended activities.
Sixty animals (plus two spare animals/sex/group) were anesthetized and dosed via intratracheal instillation of test or control materials for five consecutive days. On the day after the last dose a terminal blood collection was performed for clinical pathology, after which animals were euthanized and a gross examination of all organs was performed by a board-certified veterinary pathologist. Select tissues were collected for histopathology. […] Terminal blood collection was performed at two designated time points per animal up to 24 hours after administration for toxicokinetic evaluation. TK animals were euthanized without further evaluation after the final blood collection. All animals were acclimated for a minimum of seven days prior to the dosing procedure. Animals underwent baseline observations and examinations prior to the initiation of the study, and clinical observations and body weight monitoring were performed throughout the in-life portion of the study. All animals received the same dose volume (0.3 mL) of either test or control materials. This maximum feasible dose (MFD) is constrained by the maximum volume that can be safely and reproducibly (over five days) instilled into lungs of rats weighing 250 g to 350 g, which was determined in preliminary toxicology studies to be 0.3 mL. Actual doses delivered are reported as both μg/kg body weight and μg/gm wet lung weight. The toxicity phase animals were 72-135 days of age at the time of initial dosing. Males weighed between 256.52 g and 307.50 g with a mean±standard deviation of 286.74±11.77 g, and females weighed between 250.46 g and 299.01 g with a mean±standard deviation of 260.64±10.34 g. The TK phase animals were 68-144 days of age at the time of initial dosing. Males weighed between 261.23 g and 316.19 g; females weighed between 250.06 g and 280.32 g.
Test and control materials were drawn into dosing syringes using aseptic technique. Using a 18G needle, 0.5 mL of air was drawn into a 1 cc syringe followed by 0.3 mL (300 μL) of the solutions. Animals were anesthetized with a combination of ketamine, 40 mg/kg to 200 mg/kg, and xylazine, 1 mg/kg to 7 mg/kg intraperitoneally (IP), to effect. The dose was adjusted daily, as needed, based on individual animal response and recovery. Depth of anesthesia was evaluated by toe pinch, and eye lubricant was applied to the eyes. […]

Nrf2 = assay: Western blot of Nrf2 protein in RLE-6TN cells under hyperoxia; format: cell-based, rat; conditions: 24 hours hyperoxia, T3 10^−6 M
Text: FIG. 9. […] The cells were then collected for Western Blotting analysis. (A) Cellular total protein of Nrf2. (B) Nuclear Nrf2.
FIG. 12. T3-induced increase in Nrf2 and HO-1 protein via PI3K in hyperoxia. (A) Western Blot and densitometry data for total Nrf2. (B) Western Blot and densitometry data for cytoplasmic Nrf2. (C) Western Blot and densitometry data for nuclear Nrf2.
(§1) At the end of the hyperoxia exposure period, the viable cells were counted by trypan blue dye exclusion.
Nuclei were extracted with NE-PER nuclear and cytoplasmic extraction reagents kit (Thermo Fisher Scientific, Inc., Waltham, MA) following the manufacturer's instruction.
(§2) The cells were lysed in lysis buffer containing 20 mM Tris HCl (pH 7.5), 150 mM NaCl, 1 mM EDTA, 1 mM EGTA, 1% (vol/vol) Triton X-100 with protease inhibitors (1 mM PMSF, 2 μg/ml pepstatin, and 10 μg/ml each of aprotinin and leupeptin), and phosphatase inhibitors (2.5 mM sodium pyrophosphate, 1 mM β-glycerophosphate, and 1 mM Na3VO4). The lysate was drawn 10 times through a 25-gauge needle on ice for further lysis and then was centrifuged at 13,000 rpm for 15 minutes at 4° C. The supernatant was collected, and the protein concentrations were determined by use of the BCA protein assay kit (Sigma-Aldrich, St. Louis, MO). Immediately after this step, equal amounts of protein were subjected to Western blotting analysis.

HO-1 = assay: Western blot of HO-1 protein in RLE-6TN cells under hyperoxia; format: cell-based, rat; conditions: T3 10^−6 M
Method: FIG. 10. HO-1 Upregulation is required for T3-increased RLE-6TN cell survival in hyperoxia. […] The cells were then collected for Western Blot analysis. (B) The cells were incubated in 21% O2 and 5% CO2 for 72 hours in the present of HO-1 inhibitor Tin Protoporphyrin IX(10^−6 M) tinT3 (10^−6 M). […] Cell viability is assessed with trypan blue. The number of viable cells under specific conditions is presented as a percentage of the cell number related to hyperoxia alone. Data are mean±s.d. of three independent experiments with *=P<0.05; **=P<0.01.
as §1, §2

[2] = Phase I/II trial of instilled T3: serum thyroid hormone levels; format: in vivo, human
Text: Ten milliliters (mls) of reformulated, pH-adjusted commercial intravenous T3 solution (Par Pharmaceutical, Navi Mumbai, India; and XGen Pharmaceuticals DJB, Inc., Horseheads, NY) was instilled directly into the airspaces via a suction catheter in the endotracheal tube of intubated patients with ARDS. […] The study was approved by the Essentia IRB (Duluth, MN) and listed on ClinicalTrials.gov (NCT04115514).
Subsequent doses were given on days 4, 6, and 7. […] Despite Klebsiella aerogenes positive sputum culture, they were extubated on ventilator day 11. After discharge from the ICU, they had some confusion and delirium.

[3] = test system: rat lung mucosa and airspaces; conditions: in vivo
Method: (§3) Using aseptic technique, vials of liothyronine sodium were opened and the entire contents were transferred into sterile 1.5 mL Eppendorf tubes. 80-90 μL of 1.0 N HCl was added to the tube and gently vortexed, and the pH was measured using pH test strips (pH 4.5 to 10.0, Ricca Chemical Co., Arlington, TX). Additional HCl was titrated in gradually, as needed, until the pH was in the desired range. […] This solution was stored at 4° C. and used for up to 26 hours after pH adjustment procedure.

[4] = test system: rat lung mucosa and airspaces; assay: Preliminary studies: intratracheal instillation of liothyronine sodium without pH adjustment; conditions: pH of >10.0 as supplied commercially
Method: as §3

[5] = females, 1 day after fifth dose

N[C@@H](Cc1cc(I)c(Oc2ccc(O)c(I)c2)c(I)c1)C(=O)O [T3, triiodothyronine]
Gross pathology at necropsy ([1]; all toxicity phase animals): No evidence of toxicity was observed grossly | Clinical observations ([1]; during the study): No adverse T3 related clinical observations were observed | Treatment-related macroscopic or microscopic findings ([1]; end organs examined): no macroscopic or microscopic findings in any of the end organs examined | Body weight ([1]; toxicity phase): weighed slightly less than their pre-dose weight | Body weight ([1]; toxicity phase, listed as liothyronine sodium): did not regain body weight at the same rate as males or as in control groups | Hematology vs control groups [1, 5]: mildly increased reticulocyte count and degree of polychromasia | Serum chemistry vs control groups [1, 5]: slight statistical difference in the mean albumin concentration | Organ weight of the lungs ([1]; five days intratracheal instillation): no differences in the organ weight of the lungs | Hematology parameters vs control groups ([1]; males, 1 day after fifth dose): no statistical or clinically significant changes | Serum chemistry vs control groups ([1]; males, 1 day after fifth dose): slight difference in the mean globulin level | Deaths after dose administration ([1]; toxicity phase, T3 group, ascribed to colon impaction and instillation procedure): two T3 test animals that died after dose administration | Complications or changes (histopathologic, physiologic, laboratory value assessments) ([1]; ~2.7 μg in 0.3 mL intratracheally daily for five consecutive days): No significant complications or changes were observed | Total cellular and nuclear Nrf2 protein (Nrf2): significantly increased both total cellular and nuclear Nrf-2 protein expression | Total cellular HO-1 protein (HO-1): significantly enhanced total cellular protein of HO-1 | Serum free T3 levels ([2]; Patient 1, four 50-μg daily instilled doses, all days of treatment): 1.9 to 3.4 pg/mL | Serum free T3 levels ([2]; Patient 2, escalating daily instilled doses 5, 10, 25, 50 μg): <1.5 to 2.2 pg/mL | Toxicity of instillation into airway and lung [3]: extremely toxic to rat lung mucosa and airspaces | Tolerability of intratracheal instillation [4]: do not tolerate
